Results as given in patent publication US8822517B2, “Arylosulfonamides for the treatment of CNS diseases” (Adamed SP. Z O.O., priority 2010, dated 2014).

What was measured:
[1] = biological target: T1, serotonine transporter (SERT) receptor (Homo sapiens, UniProt P31645); experiment: Binding assay SERT (h), [3H]imipramine, CHO cells; details: read-out: SERT [%]
T1 construct: expressed in transfected cells; host or cells: CHO cells
Outline: (§1)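 Scintillation counting detects receptor-bound radioligand. Compound tested at 1×10^−6 M.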

sigma σ receptor = experiment: Binding assay σ (non-selective), [3H]DTG, rat cerebral cortex; details: percent inhibition of control specific binding; compounds tested at 1×10^−6 M
Procedure: (§2) The specific ligand binding to the receptors is defined as the difference between the total binding and the nonspecific binding determined in the presence of an excess of so unlabelled ligand.
(§3) The specific Ligand binding to the receptor is defined as the difference between total and non-specific binding determined in the presence of an excess of unlabelled ligand. The compounds were tested at a concentration of 1×10^−6 M, and scintillation counting was the method of detection of ligand binding.

adrenergic α1 receptor = experiment: Binding assay α1 (non-selective), [3H]prazosin, rat cerebral cortex; details: percent inhibition of control specific binding; compounds tested at 1×10^−6 M
Outline: as §1

muscarinic M3 receptor = biological target: T2, muscarinic M3 receptor (Homo sapiens, UniProt P20309); experiment: Binding assay M3 (h), [3H]4-DAMP, CHO cells; details: read-out: M3 [%]
T2 construct: expressed in transfected cells; host or cells: CHO cells
Procedure: as §2, §3

[2] = biological target: T3, serotoninergic receptor 5-HT2C (Homo sapiens, UniProt P28335); experiment: Binding assay 5-HT2C (h), [3H]mesulergine, HEK-293 cells; details: read-out: 5-HT2C [%]
T3 construct: expressed in transfected cells; host or cells: HEK-293 cells
T3 sequence (P28335 33-458): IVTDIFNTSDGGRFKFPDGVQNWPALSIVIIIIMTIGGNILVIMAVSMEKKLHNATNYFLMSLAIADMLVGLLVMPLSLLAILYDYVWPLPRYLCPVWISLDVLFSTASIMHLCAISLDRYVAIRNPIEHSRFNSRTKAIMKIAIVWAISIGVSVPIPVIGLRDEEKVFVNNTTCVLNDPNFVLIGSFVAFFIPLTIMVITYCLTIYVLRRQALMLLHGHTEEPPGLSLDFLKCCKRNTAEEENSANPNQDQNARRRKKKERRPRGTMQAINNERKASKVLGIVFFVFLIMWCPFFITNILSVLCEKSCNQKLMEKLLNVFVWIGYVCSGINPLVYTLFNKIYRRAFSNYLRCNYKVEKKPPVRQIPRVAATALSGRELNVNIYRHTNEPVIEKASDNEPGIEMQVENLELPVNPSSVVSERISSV
Procedure: as §2, §3

dopaminergic D3 receptor = dopaminergic D3 receptor (Homo sapiens, UniProt P35462); experiment: Binding assay D3 (h), [3H]methyl-spiperone, CHO cells; set-up: expressed in transfected cells; host or cells: CHO cells; details: read-out: D3 [%]
Outline: as §1

[3] = biological target: serotoninergic 5-HT6 receptor (Homo sapiens, UniProt P50406); experiment: Binding assay 5-HT6 (h), [3H]LSD, CHO cells; set-up: expressed in transfected cells; host or cells: CHO cells; details: read-out: 5-HT6
Outline: as §1

[4] = biological target: serotoninergic 5-HT7 receptor (Homo sapiens, UniProt P34969); experiment: Binding assay 5-HT7 (h), [3H]LSD, CHO cells; set-up: expressed in transfected cells; host or cells: CHO cells; details: read-out: 5-HT7
Outline: as §1

adrenergic α2C receptor = biological target: T4, adrenergic α2C receptor (Homo sapiens, UniProt P18825); experiment: Binding assay α2C (h), [3H]RX 821002, CHO cells; set-up: expressed in transfected cells; host or cells: CHO cells; details: read-out: α2C [%]
T4 sequence (P18825 1-462): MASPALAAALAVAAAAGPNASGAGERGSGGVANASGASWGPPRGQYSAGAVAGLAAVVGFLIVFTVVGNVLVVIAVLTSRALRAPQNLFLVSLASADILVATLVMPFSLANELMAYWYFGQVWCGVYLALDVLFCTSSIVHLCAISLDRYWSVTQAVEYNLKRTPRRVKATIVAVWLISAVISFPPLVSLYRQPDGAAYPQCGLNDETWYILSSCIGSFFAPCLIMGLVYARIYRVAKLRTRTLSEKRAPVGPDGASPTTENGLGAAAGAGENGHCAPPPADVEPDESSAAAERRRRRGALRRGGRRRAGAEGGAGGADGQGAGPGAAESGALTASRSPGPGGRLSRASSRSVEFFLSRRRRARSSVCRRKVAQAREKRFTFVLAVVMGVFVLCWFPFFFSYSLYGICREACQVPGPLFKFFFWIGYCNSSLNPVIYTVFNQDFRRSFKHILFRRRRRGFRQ
Procedure: as §2, §3

dopaminergic D2 receptor = dopaminergic D2 receptor (Homo sapiens, UniProt P14416); experiment: Binding assay D2S (h), [3H]methyl-spiperone, HEK-293 cells; set-up: expressed in transfected cells; host or cells: HEK-293 cells; details: read-out: D2 [%]
Outline: as §1

[5] = biological target: T5, serotoninergic 5-HT1A receptor (Homo sapiens, UniProt P08908); experiment: Binding assay 5-HT1A (h), [3H]8-OH-DPAT, HEK-293 cells; set-up: expressed in transfected cells; host or cells: HEK-293 cells; details: read-out: 5-HT1A
T5 sequence (P08908 1-422): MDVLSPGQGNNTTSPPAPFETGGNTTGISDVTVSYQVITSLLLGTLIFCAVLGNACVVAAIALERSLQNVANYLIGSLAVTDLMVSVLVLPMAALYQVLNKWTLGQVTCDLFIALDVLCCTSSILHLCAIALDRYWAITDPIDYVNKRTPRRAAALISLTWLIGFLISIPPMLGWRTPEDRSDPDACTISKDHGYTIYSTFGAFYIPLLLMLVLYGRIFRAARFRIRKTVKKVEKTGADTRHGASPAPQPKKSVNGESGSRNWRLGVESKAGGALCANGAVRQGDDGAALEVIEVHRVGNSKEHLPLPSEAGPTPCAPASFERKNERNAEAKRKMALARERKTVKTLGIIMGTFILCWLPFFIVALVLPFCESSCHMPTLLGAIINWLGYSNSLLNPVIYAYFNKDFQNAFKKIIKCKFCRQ
Outline: as §1

[6] = biological target: serotoninergic 5-HT2A receptor (Homo sapiens, UniProt P28223); experiment: Binding assay 5-HT2A (h), [3H]ketanserin, HEK-293 cells; set-up: expressed in transfected cells; host or cells: HEK-293 cells; details: read-out: 5-HT2A
Outline: as §1

[7] = biological target: histaminergic H1 receptor (Homo sapiens, UniProt P35367); experiment: Binding assay H1 (h), [3H]pyrilamine, HEK-293 cells; set-up: expressed in transfected cells; host or cells: HEK-293 cells; details: read-out: H1 [%]
Procedure: as §2, §3

Chain of serotoninergic 5-HT7 receptor (P34969 whole entry): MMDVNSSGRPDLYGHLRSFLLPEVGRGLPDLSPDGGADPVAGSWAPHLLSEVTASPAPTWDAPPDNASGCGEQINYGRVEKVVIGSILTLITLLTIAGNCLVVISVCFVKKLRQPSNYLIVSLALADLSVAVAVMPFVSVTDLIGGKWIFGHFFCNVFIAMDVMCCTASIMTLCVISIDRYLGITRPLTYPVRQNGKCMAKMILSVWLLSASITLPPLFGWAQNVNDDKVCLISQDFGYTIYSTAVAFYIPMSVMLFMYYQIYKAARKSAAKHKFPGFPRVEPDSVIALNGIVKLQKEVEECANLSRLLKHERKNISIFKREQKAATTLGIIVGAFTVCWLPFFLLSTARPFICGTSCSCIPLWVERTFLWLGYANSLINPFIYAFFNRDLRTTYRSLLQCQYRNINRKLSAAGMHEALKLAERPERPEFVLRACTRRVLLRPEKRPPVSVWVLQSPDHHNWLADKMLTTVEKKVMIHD
Chain of histaminergic H1 receptor (P35367 whole entry): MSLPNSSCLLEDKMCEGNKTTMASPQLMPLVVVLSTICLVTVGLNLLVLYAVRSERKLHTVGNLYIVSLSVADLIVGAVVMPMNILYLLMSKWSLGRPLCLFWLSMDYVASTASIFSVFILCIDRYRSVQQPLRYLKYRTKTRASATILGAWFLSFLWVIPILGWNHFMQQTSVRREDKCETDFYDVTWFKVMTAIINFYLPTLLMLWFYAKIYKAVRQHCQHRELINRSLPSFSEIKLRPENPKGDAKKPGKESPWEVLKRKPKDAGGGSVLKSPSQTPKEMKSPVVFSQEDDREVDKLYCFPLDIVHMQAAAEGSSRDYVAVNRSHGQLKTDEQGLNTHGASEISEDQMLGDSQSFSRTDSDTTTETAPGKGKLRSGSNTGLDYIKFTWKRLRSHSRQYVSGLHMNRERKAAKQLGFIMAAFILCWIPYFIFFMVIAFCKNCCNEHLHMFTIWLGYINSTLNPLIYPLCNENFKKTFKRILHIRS
Chain of serotoninergic 5-HT2A receptor (P28223 whole entry): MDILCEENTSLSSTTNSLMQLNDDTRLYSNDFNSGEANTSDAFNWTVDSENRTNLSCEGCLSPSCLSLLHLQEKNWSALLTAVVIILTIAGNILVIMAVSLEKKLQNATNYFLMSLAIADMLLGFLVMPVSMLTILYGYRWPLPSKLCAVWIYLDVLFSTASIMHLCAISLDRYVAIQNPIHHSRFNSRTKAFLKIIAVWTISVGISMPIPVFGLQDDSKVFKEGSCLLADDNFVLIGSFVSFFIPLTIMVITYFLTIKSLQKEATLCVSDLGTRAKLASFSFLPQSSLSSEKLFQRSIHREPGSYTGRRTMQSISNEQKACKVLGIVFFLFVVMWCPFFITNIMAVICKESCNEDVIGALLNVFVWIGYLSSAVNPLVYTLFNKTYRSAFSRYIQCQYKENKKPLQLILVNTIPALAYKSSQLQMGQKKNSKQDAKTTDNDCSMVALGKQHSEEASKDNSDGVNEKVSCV
T2 sequence (P20309 whole entry): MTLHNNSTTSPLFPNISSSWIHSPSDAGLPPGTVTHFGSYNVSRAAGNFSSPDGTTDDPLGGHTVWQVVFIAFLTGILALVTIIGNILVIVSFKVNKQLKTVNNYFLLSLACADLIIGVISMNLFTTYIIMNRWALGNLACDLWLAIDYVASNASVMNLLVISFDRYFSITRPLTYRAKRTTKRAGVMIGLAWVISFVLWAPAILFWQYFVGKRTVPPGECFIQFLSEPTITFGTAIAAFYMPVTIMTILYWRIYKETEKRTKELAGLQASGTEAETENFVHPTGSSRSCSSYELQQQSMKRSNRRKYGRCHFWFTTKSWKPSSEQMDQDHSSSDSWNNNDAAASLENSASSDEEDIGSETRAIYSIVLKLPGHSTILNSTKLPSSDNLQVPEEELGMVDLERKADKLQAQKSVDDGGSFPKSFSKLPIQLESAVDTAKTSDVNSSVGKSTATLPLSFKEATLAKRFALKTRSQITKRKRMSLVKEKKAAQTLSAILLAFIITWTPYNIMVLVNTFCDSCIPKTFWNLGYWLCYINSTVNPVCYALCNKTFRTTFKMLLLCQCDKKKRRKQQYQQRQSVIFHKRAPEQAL
Chain of dopaminergic D2 receptor (P14416 1-414 isoform P14416-2): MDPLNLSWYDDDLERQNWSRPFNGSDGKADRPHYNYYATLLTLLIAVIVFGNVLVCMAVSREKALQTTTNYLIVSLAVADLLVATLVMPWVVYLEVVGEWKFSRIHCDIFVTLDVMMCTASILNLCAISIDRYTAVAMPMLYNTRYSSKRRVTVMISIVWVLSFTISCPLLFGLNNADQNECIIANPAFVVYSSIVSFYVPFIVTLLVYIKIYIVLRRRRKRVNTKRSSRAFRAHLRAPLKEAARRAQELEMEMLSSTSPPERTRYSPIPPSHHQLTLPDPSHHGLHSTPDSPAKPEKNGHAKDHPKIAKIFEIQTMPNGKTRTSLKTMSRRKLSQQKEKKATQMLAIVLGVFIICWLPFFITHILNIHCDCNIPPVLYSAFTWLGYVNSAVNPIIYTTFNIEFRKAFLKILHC
Chain of serotoninergic 5-HT6 receptor (P50406 whole entry): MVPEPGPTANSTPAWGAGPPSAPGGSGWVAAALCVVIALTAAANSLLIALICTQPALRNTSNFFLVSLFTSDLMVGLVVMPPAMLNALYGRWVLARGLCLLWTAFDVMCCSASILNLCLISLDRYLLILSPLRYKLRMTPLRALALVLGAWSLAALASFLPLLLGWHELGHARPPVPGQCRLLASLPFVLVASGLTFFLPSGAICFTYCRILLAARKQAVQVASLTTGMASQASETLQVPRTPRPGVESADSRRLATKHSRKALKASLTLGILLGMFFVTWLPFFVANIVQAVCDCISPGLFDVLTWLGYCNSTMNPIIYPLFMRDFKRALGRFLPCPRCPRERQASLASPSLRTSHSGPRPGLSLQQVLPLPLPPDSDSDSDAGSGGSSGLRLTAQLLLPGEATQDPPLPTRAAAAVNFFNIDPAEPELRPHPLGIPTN
Chain of dopaminergic D3 receptor (P35462 whole entry): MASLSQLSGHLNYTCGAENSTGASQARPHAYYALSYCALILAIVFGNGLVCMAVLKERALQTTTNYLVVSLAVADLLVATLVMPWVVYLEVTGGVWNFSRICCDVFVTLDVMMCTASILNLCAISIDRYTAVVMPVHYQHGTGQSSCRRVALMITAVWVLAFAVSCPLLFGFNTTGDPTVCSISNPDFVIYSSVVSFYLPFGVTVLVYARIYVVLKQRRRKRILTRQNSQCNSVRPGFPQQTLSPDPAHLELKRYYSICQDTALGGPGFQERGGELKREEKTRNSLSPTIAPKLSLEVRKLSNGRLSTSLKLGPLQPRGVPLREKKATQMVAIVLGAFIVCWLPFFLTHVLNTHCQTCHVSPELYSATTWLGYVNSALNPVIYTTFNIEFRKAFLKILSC
T1 sequence (P31645 whole entry): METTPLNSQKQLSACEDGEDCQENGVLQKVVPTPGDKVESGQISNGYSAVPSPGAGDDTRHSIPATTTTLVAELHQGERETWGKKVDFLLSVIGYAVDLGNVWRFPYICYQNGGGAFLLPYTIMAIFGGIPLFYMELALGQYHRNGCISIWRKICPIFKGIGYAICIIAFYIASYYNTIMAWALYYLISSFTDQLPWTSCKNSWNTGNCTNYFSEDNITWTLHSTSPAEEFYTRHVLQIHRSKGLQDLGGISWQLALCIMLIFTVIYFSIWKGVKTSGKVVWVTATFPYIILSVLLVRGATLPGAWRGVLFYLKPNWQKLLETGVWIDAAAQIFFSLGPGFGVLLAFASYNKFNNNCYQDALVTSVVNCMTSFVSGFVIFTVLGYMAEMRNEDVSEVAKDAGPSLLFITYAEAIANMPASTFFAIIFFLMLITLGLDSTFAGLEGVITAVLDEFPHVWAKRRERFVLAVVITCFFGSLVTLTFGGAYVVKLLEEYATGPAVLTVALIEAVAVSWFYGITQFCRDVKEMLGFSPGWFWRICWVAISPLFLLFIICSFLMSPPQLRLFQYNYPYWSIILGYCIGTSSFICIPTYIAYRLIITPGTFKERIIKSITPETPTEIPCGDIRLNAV

Compound	inhibition at 1 µM [1] [%]	σ [%] (sigma σ receptor)	α1 [%] (adrenergic α1 receptor)	inhibition at 1 µM (muscarinic M3 receptor) [%]	inhibition at 1 µM [2] [%]	inhibition at 1 µM (dopaminergic D3 receptor) [%]	inhibition at 1 µM [3] [%]	inhibition at 1 µM [4] [%]	inhibition at 1 µM (adrenergic α2C receptor) [%]	inhibition at 1 µM (dopaminergic D2 receptor) [%]	inhibition at 1 µM [5] [%]	inhibition at 1 µM [6] [%]	inhibition at 1 µM [7] [%]
O=c1[nH]c2cccc(N3CCN(CCCNS(=O)(=O)c4cccc(F)c4)CC3)c2[nH]1 [Compound 176, 3-Fluoro-N-[3-[4-(2-oxo-1,3-dihydrobenzimidazol-4-yl)piperazin-1-yl]propyl]benzenesulphonamide]	-3	−25	77	6	9	95	29	80	44	89	97	7	8
O=S(=O)(NCCCN1CCN(c2nsc3ccccc23)CC1)c1ccc(Cl)s1 [Compound 196, N-[3-[4-(1,2-Benzothiazol-3-yl)piperazin-1-yl]propyl]-5-chloro-thiophene-2-sulphonamide]	75	66	93	18	89	97	92	100	95	98	99	102	93
O=S(=O)(NCCCCN1CCN(c2nsc3ccccc23)CC1)c1cccc(O)c1 [Compound 231, N-[4-[4-(1,2-Benzothiazol-3-yl)piperazin-1-yl]butyl]-3-hydroxybenzenesulphonamide]	59	62	96	11	87	97	95	99	99	99	97	101	97
O=S(=O)(NCCCCN1CCN(c2nsc3ccccc23)CC1)c1cccc2scnc12 [Compound 243, N-[4-[4-(1,2-Benzothiazol-3-yl)piperazin-1-yl]butyl]-1,3-benzothiazole-4-sulphonamide]	63	29	97	10	81	93	73	99	96	100	98	100	93
O=S(=O)(NCCCCN1CCN(c2nsc3ccccc23)CC1)c1ccc2c(c1)OCO2 [Compound 245, N-[4-[4-(1,2-Benzothiazol-3-yl)piperazin-1-yl]butyl]-1,3-benzodioxole-5-sulphonamide]	38	52	96	25	72	97	82	98	101	97	99	99	98
O=S(=O)(NCCCN1CCN(c2nsc3ccccc23)CC1)c1ccc(F)cc1 [Compound 248, N-[3-[4-(1,2-Benzothiazol-3-yl)piperazin-1-yl]propyl]-4-fluorobenzenesulphonamide]	80	64	91	13	84	100	98	98	93	99	97	101	97
O=S(=O)(NCCCN1CCN(c2nsc3ccccc23)CC1)c1ccc(F)c(F)c1 [Compound 249, N-[3-[4-(1,2-Benzothiazol-3-yl)piperazin-1-yl]propyl]-3,4-difluorobenzenesulphonamide]	77	68	99	9	89	100	101	100	98	98	100	101	97
O=S(=O)(NCCCN1CCN(c2nsc3ccccc23)CC1)c1ccc(Br)cc1 [Compound 252, N-[3-[4-(1,2-Benzothiazol-3-yl)piperazin-1-yl]propyl]-4-bromobenzenesulphonamide]	94	59	27	16	84	98	93	99	95	97	99	101	-77
O=S(=O)(NCCCN1CCN(c2nsc3ccccc23)CC1)c1cccc(Br)c1 [Compound 253, N-[3-[4-(1,2-Benzothiazol-3-yl)piperazin-1-yl]propyl]-3-bromobenzenesulphonamide]	79	64	97	24	89	99	101	99	102	99	99	101	98
